Here are results for two compounds from patent US7758856B2, “Bacteriophage for the treatment of bacterial biofilms” (Biocontrol Limited, priority 2003, dated 2010).

≈ marks a conversion by molar mass, not a printed value.

For data set [1] the following is noted: CF patients, nebulisation twice a day (tobramycin 80 mg; Colistin 2 mega units); cited from earlier work.
The subject of data set [2] is Ps. aeruginosa GH56 biofilms. In words: In vitro biofilm model (chemostat and Robbins device, viable counts on PVC disks).
Procedure: Each port allows insertion of a sampling stud that contains a polyvinyl chloride (PVC) disk that lies flush to the upper surface of the lumen. The continuous culture is pumped through the Robbins device and biofilms are formed on the surface of PVC disks exposed to the culture.
A 10-ml aliquot of an 18 hour culture of Pseudomonas aeruginosa, at approximately 10^8 cfu per ml, was used to inoculate the sterile growth media within the chemostat. The inocula was introduced into the chemostat through the sample port in the top plate. • ii. Following inoculation, the chemostat was operated as a batch culture for 4 h to allow establishment of the culture. • iii. Medium addition (½ strength nutrient broth, Oxoid) was commenced at the desired flow rate (1 ml per min) and the effluent pump was activated. The flow rate of the effluent pump was the same as the inflow pump. The effluent tubing bypassed the Robbins devices leading straight to the main waste reservoir. • iv. The continuous chemostat was run for a predetermined time until a steady state was attained (96-hours). At this stage, the tubes leading to the Robbins devices were positioned onto the multi-head pump, thus instigating culture flow through the Robbins devices. • v. […] The medium, effluent and culture volumes were recorded on the run sheet and the flow rates calculated accordingly. […]
The next data set relates to Ps. aeruginosa. Nature of the data set: Minimal inhibition concentration of tobramycin. In kind it is cell-based. The settings on record: Pseudomonas aeruginosa.

On to Colistin, for which, in data set [1], the serum levels result is on record as “unmeasurable”.

For the compound `NC[C@H]1O[C@H](O[C@H]2[C@H](O)[C@@H](O[C@H]3O[C@H](CO)[C@@H](O)[C@H](N)[C@H]3O)[C@H](N)C[C@@H]2N)[C@H](N)C[C@@H]1O` [tobramycin], the “effect on Ps. aeruginosa sessile (biofilm) population” value in data set [2] (four applications at MIC (4 mg L^-1), over 24 h / 48 h) is reported as “no significant effect”. The “effect on biofilm viability / sessile population” value in data set [2] (tobramycin at 10xMIC, four applications) was “no significant effect”. In addition, the serum levels result in data set [1] is reported as “unmeasurable”. In the data set on Ps. aeruginosa, this compound registered an MIC of 4 mg/L (≈ 8.56 µM).
